Assay results from patent publication US11337420B2, “Cryopreservation of juvenile stages of barnacles” (Planktonic AS, priority 2016, dated 2022).
Like-named read-outs stand apart in the source and are kept apart here.

Key:
[1] = tested on: Barnacle nauplii stage I and II from Semibalanus balanoides; assay: Cryopreservation, thawing and revitalization of nauplii, viability check (different cryoprotectants, volume ratios, equilibrium periods); type: in vivo
Description: (§1) Barnacle nauplii (Semibalanus balanoides or Balanus crenatus) were drained and concentrated (10% dry weight) and mixed 1:1 with a cryoprotectant (on ice). The mixture was filled, sealed and equilibrated in a pouch (600 gram consisting of 300 ml cryoprotectant and 300 ml barnacles) for 30 minutes at 5 ° C. before transferring to a controlled freezer. The pouch was put in an aluminum rack, and temperature loggers were put inside the pouch and in the freezer to measure air temperature. Alternatively smaller amount of about 60 g or vials were used in the tests.
(§2) After freezing from 5 to −42 ° C., with a duration of >12 hours using the disclosed method, the pouches were soaked in liquid nitrogen until −196 ° C. were homogenously achieved inside the pouches. The pouches were transferred to cryocontainers (with liquid nitrogen) of 175 liters, and stored for more than 48 hours. To check viability, the pouches were removed from the cryocontainer, crushed to get out the content and thawed in cold seawater (less than 5 ° C.). After 15 minutes, the thawed nauplii were washed on a 100 μm filter to remove the cryoprotectant. Revitalization was performed for >8 hours in an aerated tank with 30 PSU seawater (start temperature 2.5 ° C.).
Barnacle nauplii stage I and II from Semibalanus balanoides were treated with a 6 molar solution of dimethyl sulfoxide (DMSO) as cryoprotectant and 1:1 mixing between cryoprotectant and organisms. Equilibrium was performed for 30 minutes at 3 to 5° C.
Samples of these organisms were cryopreserved in a volume ratio of A) 30% cryoprotectant to 70% organisms (volume/volume) and B) 40% cryoprotectant to 60% organisms (volume/volume). The control was C) 50% cryoprotectant to 50% organisms (volume/volume). All tests were carried out in triplicate.
(1:1 volume ratio with organisms). Thereafter the organisms were cryopreserved by the disclosed method, stored in liquid nitrogen for 48 hours, thawed and revitalized. The barnacle nauplii were analyzed for their vitality using a binocular microscope.

[2] = tested on: Barnacle nauplii stage I and II from Semibalanus balanoides or Balanus crenatus; conditions: 7.2 molar solution, 1:1 mixing between cryoprotectant and organisms
Description: as §1, §2

[3] = for content of ethylene glycol in drained barnacle nauplii: revitalization in 30 liters of seawater
Source text: Immediately after thawing, the nauplii was drained for water and frozen again.
A small piece of frozen material was taken on a filter, and rinsed until it was thawed, and thereafter frozen and analyzed. […] When revitalized, the barnacle nauplii were drained again for seawater, and added 30 liters of seawater.

[4] = tested on: aquatic organisms; conditions: aquatic organisms in general; cited from earlier work
[5] = tested on: Barnacle nauplii stage I and II of Semibalanus balanoides
Description: Samples were taken out after 0, 1, 2, 4, 8, 12, and 24 hours and the cryoprotectant was washed out to check viability of the nauplii. Levels of viability were identified as 0, 1, 2, 3, 4 and 5. “0” represents no activity (dead nauplii), 1-3 are twitching of appendages less than pre-cryopreserved nauplii, but 3 are close to natural swimming. 4 are swimming as pre-cryopreserved nauplii, and 5 are over-stimulated nauplii.

[6] = tested on: nauplii of Balanus amphitrite; conditions: 3 to 4 M, equilibration time up to 2 h; cited from earlier work
[7] = tested on: nauplii; conditions: salt in the cryoprotectant solution compared to no salt addition
Source text: The final salt concentration of NaCl is thereby preferably between 2.0 to 4.5%, more preferably between 3.0 to 3.8%, most preferred between 3.2 and 3.8%.

[8] = 600 gram sample in 15 liter seawater, after 15 minutes

C[S+](C)[O-] [DMSO, dimethyl sulfoxide]
viability after thawing ([1]; 6 molar solution, 1:1 mixing, equilibrium 30 minutes at 3 to 5° C.): comparable to barnacle nauplii exposed to ethylene glycol

OCCO [ethylene glycol]
nauplii with natural swimming activity (level 4) after thawing [2]: > 50%
swimming activity level of the remaining nauplii after thawing [2]: 1-3
equilibration of cryoprotectant with the organisms ([3]; 7.2 molar solution added to drained material): < 15%
content as share of the added ethylene glycol [3, 8]: < 2%
ethylene glycol concentration in nauplii [3, 8]: about 0.1 M
content of ethylene glycol in drained barnacle nauplii ([3]; after one hour): < 25 ppm
content of ethylene glycol in drained barnacle nauplii ([3]; after two hours, detection level): < 10 ppm
ethylene glycol concentration inside the organisms ([3]; second step: drained, 15 liter of seawater added for washing): < 300 ppm
ethylene glycol content in nauplii ([3]; time zero sample, rinsed until thawed, 7.2 M, volume ratio 1:1): 7400-11000 ppm
level regarded as non-toxic [4]: ≤ 100 ppm
individuals showing relatively good swimming behavior ([5]; 7.2 molar ethylene glycol stock solution, on ice, even after 24 hour of exposure): 80-90%
level of viability of recovered nauplii ([5]; 7.2 molar ethylene glycol stock solution, on ice, even after 24 hour of exposure, cryoprotectant washed out): 2-3
harm to nauplii in toxicity test ([5]; equilibrium period of 24 hours with 7.2 M (stock solution) ice cold): does not considerably harm barnacle nauplii
viability, difference between volume ratios ([1]; 30%, 40% or 50% cryoprotectant to 70%, 60% or 50% organisms (volume/volume), triplicate): no significant between the treatments in terms of viability
vitality, difference between equilibrium periods ([1]; incubated 0, 15, 30, 60 minutes in 7.2 M at 5 ° C., 1:1 volume ratio): No significant differences in vitality
vitality after equilibrium period ([1]; incubated 90 minutes in 7.2 M at 5 ° C., 1:1 volume ratio): less vital organisms than the other treatments
damage to nauplii [6]: did not cause damage

[Cl-].[Na+] [NaCl]
revitalization of nauplii [7]: improve the revitalization of nauplii compared to no salt addition

CC(O)CO (centres unmarked) [propylene glycol]
percentage of viable nauplii after thawing ([1]; 40% by volume mixed with 60% by volume seawater, volume ratio 1:1): minimal compared to ethylene glycol
